Common to all, as to experiment: Ambit kinase profiling, competition binding
One test addresses T1, CAMKIIγ (Homo sapiens, UniProt Q13555).
T1 construct: purchased Ambit Biosciences (KINOMEscan)
As to conditions: for competition: CAMKIIγ, 10 µM. The method, then: (§1) Also included in the kinase profile are four isoforms of PKC (δ, ε, η, θ) and eight isoforms of CAMKs (CAMKIα, δ, γ; CAMKIIα, β, δ, γ; CAMK4).
(§2) The global kinase profiling experiment was performed by Ambit Biosciences.

The target of the next test is T2, CLK4 (Homo sapiens, UniProt Q9HAZ1).
T2 construct: purchased Ambit Biosciences (KINOMEscan)
T2 sequence (Q9HAZ1 whole entry): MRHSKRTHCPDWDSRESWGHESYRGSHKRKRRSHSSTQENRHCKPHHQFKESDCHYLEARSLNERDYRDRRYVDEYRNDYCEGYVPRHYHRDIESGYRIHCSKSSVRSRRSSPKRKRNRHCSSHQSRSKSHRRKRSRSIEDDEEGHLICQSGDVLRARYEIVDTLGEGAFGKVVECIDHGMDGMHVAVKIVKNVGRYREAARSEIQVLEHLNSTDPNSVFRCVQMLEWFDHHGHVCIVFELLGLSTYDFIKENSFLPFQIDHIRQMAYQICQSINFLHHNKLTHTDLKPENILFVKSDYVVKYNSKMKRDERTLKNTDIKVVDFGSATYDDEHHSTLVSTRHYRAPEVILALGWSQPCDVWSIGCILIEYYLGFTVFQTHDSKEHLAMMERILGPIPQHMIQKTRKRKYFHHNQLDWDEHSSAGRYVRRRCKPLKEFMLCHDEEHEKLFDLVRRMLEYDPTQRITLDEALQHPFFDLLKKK
The method, then:
as §1, §2

In a further test the target is T3, DDR1 (Homo sapiens, UniProt Q08345).
T3 construct: purchased Ambit Biosciences (KINOMEscan)
T3 sequence (Q08345 19-913): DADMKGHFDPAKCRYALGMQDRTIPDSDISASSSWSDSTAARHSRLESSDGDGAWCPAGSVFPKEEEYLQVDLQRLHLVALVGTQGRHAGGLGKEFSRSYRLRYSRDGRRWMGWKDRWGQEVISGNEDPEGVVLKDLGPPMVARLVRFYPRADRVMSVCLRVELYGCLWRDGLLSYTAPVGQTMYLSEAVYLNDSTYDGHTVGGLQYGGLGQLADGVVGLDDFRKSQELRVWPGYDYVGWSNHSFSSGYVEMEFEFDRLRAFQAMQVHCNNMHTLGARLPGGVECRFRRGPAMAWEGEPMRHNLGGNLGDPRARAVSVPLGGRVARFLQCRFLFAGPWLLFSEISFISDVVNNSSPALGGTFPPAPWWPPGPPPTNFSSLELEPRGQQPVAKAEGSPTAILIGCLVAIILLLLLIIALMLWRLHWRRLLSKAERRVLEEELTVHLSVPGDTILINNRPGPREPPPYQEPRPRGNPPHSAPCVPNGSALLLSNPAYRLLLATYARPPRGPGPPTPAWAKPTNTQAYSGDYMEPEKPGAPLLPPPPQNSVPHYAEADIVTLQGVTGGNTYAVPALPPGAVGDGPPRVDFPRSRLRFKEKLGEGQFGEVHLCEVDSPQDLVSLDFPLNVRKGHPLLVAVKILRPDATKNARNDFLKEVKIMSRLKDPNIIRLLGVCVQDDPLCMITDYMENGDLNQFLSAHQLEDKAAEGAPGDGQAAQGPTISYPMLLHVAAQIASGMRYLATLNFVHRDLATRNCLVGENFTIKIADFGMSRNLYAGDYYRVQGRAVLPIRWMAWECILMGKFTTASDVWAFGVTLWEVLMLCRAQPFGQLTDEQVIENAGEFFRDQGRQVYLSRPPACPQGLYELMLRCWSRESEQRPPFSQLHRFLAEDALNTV
On the procedure: as §1, §2

In another test the target is T4, DDR2 (Homo sapiens, UniProt Q16832).
T4 construct: purchased Ambit Biosciences (KINOMEscan)
T4 sequence (Q16832 22-855): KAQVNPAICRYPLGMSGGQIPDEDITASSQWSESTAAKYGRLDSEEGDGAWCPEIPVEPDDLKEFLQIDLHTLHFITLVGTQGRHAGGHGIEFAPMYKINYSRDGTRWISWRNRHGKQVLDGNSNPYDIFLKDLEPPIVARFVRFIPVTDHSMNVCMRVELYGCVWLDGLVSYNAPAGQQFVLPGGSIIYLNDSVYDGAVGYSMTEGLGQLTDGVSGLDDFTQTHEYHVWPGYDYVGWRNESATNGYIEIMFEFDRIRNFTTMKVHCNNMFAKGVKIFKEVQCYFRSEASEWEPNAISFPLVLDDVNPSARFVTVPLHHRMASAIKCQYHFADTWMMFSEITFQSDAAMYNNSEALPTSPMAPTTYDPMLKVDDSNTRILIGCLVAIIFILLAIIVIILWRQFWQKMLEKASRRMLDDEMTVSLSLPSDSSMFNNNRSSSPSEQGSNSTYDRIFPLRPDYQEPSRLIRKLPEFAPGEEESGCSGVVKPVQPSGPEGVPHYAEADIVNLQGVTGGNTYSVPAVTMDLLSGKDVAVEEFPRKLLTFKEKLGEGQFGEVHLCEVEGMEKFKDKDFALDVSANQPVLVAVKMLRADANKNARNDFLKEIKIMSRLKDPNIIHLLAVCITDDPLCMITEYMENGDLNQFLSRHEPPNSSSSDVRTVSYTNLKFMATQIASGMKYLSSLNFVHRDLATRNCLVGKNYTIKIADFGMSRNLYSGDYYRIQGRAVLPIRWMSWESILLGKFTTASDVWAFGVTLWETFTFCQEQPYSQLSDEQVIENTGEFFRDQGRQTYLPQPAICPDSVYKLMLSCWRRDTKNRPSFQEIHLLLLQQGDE
On the procedure:
as §1, §2

Another test deals with T5, EPHA6 (Homo sapiens, UniProt Q9UF33).
T5 construct: purchased Ambit Biosciences (KINOMEscan)
T5 sequence (Q9UF33 23-1036): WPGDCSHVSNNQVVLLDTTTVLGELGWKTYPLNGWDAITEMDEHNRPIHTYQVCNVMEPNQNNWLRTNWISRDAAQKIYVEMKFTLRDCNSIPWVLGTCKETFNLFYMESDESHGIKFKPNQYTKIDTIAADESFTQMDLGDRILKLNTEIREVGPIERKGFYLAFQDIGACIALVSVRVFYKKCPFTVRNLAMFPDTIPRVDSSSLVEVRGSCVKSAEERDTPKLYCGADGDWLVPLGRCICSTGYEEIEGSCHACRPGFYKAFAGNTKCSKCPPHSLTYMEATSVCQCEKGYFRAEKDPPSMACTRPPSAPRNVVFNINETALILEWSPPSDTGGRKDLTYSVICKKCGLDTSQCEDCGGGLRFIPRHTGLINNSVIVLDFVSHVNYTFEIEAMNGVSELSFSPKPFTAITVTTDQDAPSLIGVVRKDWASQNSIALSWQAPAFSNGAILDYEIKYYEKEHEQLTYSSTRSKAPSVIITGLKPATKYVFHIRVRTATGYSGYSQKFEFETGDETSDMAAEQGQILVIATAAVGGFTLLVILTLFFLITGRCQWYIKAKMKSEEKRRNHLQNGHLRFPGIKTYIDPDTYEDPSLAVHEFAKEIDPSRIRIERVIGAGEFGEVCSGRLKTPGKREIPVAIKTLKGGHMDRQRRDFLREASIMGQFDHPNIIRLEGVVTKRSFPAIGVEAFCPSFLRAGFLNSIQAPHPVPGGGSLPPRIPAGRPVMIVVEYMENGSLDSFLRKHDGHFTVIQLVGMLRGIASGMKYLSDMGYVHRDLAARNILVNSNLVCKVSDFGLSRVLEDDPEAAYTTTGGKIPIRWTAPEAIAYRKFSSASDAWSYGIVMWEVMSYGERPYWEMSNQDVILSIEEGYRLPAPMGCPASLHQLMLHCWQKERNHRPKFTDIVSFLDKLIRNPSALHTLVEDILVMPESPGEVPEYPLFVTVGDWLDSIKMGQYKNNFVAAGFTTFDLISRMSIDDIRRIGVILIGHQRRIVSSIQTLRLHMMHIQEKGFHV
On the procedure: as §1, §2

A further test concerns the target T6, JNK3 (Homo sapiens, UniProt P53779).
T6 construct: purchased Ambit Biosciences (KINOMEscan)
As to conditions: for % Competition: 10 µM. The method, then: as §1, §2

In another test the target is T7, MRCKA (Homo sapiens, UniProt Q5VT25).
T7 construct: purchased Ambit Biosciences (KINOMEscan)
T7 sequence (Q5VT25 whole entry): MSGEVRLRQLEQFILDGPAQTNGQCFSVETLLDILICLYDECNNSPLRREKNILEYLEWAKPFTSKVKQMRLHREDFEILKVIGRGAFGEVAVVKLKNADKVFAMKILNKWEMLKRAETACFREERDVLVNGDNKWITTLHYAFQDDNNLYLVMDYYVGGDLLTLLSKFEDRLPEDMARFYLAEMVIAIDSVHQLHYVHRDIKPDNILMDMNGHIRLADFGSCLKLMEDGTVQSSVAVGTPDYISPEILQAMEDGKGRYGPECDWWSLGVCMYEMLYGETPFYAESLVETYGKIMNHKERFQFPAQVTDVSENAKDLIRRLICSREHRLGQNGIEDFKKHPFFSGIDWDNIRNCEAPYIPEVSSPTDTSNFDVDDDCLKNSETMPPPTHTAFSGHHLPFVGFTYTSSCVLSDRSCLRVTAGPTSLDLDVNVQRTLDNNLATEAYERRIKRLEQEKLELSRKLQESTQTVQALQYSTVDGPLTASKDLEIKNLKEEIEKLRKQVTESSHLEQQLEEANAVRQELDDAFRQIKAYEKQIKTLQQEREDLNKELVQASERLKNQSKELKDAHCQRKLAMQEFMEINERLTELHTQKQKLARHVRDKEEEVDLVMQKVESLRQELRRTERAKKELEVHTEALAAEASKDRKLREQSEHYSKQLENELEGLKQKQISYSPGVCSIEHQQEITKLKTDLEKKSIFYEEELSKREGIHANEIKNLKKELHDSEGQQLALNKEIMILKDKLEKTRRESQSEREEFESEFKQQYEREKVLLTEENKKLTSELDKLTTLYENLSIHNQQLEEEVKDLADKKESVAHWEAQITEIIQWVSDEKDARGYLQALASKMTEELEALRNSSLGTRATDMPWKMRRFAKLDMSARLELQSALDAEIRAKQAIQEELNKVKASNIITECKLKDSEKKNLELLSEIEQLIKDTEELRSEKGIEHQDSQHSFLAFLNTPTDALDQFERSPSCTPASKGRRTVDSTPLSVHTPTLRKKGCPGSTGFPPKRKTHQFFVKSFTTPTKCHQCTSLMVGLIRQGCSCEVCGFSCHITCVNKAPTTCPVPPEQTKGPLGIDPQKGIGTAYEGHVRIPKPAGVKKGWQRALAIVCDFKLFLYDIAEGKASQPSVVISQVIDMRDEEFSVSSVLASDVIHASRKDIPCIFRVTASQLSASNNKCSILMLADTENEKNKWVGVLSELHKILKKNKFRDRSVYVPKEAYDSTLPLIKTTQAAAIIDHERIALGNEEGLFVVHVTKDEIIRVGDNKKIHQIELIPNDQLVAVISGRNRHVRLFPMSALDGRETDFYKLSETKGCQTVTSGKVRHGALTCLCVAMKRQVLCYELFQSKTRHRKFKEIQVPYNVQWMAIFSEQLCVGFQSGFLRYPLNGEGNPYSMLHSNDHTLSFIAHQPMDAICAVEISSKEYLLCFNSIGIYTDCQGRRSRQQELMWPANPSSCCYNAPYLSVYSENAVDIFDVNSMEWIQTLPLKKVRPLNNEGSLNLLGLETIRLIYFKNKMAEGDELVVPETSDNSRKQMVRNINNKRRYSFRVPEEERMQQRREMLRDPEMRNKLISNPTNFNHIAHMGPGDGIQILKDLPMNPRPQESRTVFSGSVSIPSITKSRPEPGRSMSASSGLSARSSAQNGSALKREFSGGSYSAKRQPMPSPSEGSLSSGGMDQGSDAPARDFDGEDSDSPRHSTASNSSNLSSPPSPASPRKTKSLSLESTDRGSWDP
On the procedure:
as §1, §2

Another test addresses T8, MST3 (Homo sapiens, UniProt Q9Y6E0).
T8 construct: purchased Ambit Biosciences (KINOMEscan)
As to conditions: for % Competition: 10 µM. The method, then: as §1, §2

The target in another test is T9, YANK2 (Homo sapiens, UniProt Q9NY57).
T9 construct: purchased Ambit Biosciences (KINOMEscan)
T9 sequence (Q9NY57 whole entry): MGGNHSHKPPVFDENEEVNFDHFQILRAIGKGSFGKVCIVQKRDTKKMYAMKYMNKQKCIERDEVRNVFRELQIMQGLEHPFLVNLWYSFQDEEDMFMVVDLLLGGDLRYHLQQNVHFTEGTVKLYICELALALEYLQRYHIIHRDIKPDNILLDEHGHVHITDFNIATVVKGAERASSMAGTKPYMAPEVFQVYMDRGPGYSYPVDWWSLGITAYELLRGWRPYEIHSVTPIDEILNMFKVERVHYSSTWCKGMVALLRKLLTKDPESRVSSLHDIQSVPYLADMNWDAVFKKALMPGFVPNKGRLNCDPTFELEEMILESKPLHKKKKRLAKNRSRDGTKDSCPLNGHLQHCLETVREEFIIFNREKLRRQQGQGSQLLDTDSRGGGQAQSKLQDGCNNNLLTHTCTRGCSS
On the procedure: as §1, §2

Where two headings read alike, the source gives them in different places.

T1 sequence (Q13555 whole entry): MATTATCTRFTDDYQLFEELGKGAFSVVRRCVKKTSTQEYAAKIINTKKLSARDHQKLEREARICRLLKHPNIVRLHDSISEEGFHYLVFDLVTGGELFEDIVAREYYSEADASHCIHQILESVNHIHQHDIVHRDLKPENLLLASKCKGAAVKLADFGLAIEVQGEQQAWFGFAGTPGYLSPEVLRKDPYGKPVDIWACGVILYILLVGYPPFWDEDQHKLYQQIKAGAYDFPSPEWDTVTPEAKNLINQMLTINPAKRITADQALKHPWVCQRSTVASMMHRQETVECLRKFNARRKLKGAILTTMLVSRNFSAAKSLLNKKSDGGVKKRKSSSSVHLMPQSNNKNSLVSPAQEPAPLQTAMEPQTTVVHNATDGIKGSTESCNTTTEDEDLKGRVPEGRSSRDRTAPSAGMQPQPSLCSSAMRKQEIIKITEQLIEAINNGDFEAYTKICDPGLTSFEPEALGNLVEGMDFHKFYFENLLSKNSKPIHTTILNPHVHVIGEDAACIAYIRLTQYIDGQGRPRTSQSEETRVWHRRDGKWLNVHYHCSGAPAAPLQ
T8 sequence (Q9Y6E0 whole entry): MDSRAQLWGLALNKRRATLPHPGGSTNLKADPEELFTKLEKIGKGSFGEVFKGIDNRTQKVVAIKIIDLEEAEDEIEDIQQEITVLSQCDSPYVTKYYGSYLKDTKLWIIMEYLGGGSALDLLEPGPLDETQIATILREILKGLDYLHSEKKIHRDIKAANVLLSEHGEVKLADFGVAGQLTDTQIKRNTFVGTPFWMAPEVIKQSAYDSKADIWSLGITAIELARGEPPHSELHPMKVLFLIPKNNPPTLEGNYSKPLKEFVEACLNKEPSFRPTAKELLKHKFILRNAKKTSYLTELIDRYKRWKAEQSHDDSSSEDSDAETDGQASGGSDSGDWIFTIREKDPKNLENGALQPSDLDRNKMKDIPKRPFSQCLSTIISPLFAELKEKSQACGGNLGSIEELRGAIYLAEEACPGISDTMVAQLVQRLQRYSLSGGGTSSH
T6 sequence (P53779 whole entry): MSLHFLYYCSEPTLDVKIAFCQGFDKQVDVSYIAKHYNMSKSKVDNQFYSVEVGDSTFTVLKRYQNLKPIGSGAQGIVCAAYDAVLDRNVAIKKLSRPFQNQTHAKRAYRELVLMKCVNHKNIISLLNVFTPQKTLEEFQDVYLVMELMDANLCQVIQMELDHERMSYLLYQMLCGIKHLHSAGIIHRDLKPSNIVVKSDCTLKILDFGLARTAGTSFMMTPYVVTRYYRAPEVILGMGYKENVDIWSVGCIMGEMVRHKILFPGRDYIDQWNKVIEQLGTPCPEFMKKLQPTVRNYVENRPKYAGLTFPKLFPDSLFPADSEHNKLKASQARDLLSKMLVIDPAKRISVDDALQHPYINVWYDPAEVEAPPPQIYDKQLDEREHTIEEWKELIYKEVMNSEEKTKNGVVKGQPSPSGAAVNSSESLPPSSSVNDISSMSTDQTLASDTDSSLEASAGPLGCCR

Turning to `CC(O)CNc1cc(-c2[nH]c3cccnc3c2-c2ccc(F)cc2)ccn1` (stereo not drawn) [Compound 140], the competition at CAMKIIγ is < 50%. Besides, the inhibition at 10 µM is < 50% on CLK4 (read-out: % Competition); 98% on DDR1 (read-out: % Competition); 67% on DDR2 (read-out: % Competition); < 50% at EPHA6 (read-out: % Competition); < 50% on MRCKA (read-out: % Competition); < 50% on YANK2 (read-out: % Competition). Besides, the “% Competition” value at JNK3 is 83%; at MST3 it was <50%.
For the compound `Fc1ccc(-c2c(-c3ccncc3)[nH]c3nccnc23)cc1` [RO1155697-000-005], the inhibition at 10 µM at CAMKIIγ (CAMK2G, compound concentration 10 uM, read-out: Percent Competition) is < 50%; on CLK4 (CLK4, compound concentration 10 uM, read-out: Percent Competition), 88%; at DDR1 (DDR1, compound concentration 10 uM, read-out: Percent Competition), 100%; on DDR2 (DDR2, compound concentration 10 uM, read-out: Percent Competition) it was 100%; at EPHA6 (EPHA6, compound concentration 10 uM, read-out: Percent Competition) it was 93%; at MRCKA (MRCKA, compound concentration 10 uM, read-out: Percent Competition), 99%. The inhibition at 10 µM at YANK2 (YANK2, compound concentration 10 uM, read-out: Percent Competition) is 89%. In addition, the entries for the “Percent Competition” value on JNK3 (compound concentration 10 uM) and at MST3 (compound concentration 10 uM) were 88% and 68%, respectively.
For `Fc1ccc(-c2c(-c3ccncc3)[nH]c3nccnc23)cc1` [Compound 122], the competition at CAMKIIγ is < 50%. The inhibition at 10 µM on CLK4 (CLK4, 10 µM, read-out: % Competition) stood at 88%; at DDR1 (DDR1, 10 µM, read-out: % Competition) it was 100%; at DDR2 (DDR2, 10 µM, read-out: % Competition), 100%; on EPHA6 (EPHA6, 10 µM, read-out: % Competition) it was 93%; on MRCKA (MRCKA, 10 µM, read-out: % Competition), 99%; on YANK2 (YANK2, 10 µM, read-out: % Competition) it was 89%. Also, the “% Competition” value came to 88% at JNK3 and 68% at MST3.
